EP0351767A2, “Use of potassium channel activators to inhibit myocardial cell necrosis and to maintain the functioning of the heart during myocardial ischemia and/or reperfusion” (E.R. SQUIBB & SONS, INC., priority 1988, dated 1990)
Where two headings read alike, the source gives them in different places.

Columns and labels:
[1] = system: rat portal vein; assay: Inhibition of spontaneous mechanical activity (twitch height and frequency) in isolated rat portal vein; conditions: for IC50: Rattus norvegicus
Protocol: (§1) A bicarbonate buffered physiological salt solution (PSS) was used containing, in mM: 118.4 NaCl, 4.7 KCl, 1.2 KH₂PO₄ 1.2 MgSO₄, 2.5 CaCl₂, 25.0 NaHCO₃ and 11.7 glucose. PSS with varying concentrations of KCl was prepared by addition of appropriate amounts of KCl from a 4M KCl stock. Calcium free PSS was prepared by deletion of CaCl₂ and addition of 1.0 mM [ethylenebis(oxyethylenitrilo)]-tetraacetic acid (EGTA). All solutions were aerated with 95% O₂-5% CO₂ such that the pH was 7.4. Experiments were conducted at 37°C.
Stock solutions of test compounds were prepared daily. The compounds were dissolved in water or DMSO as appropriate.
(§2) Normotensive male Wistar Kyoto rats approximately 14 weeks old were sacrificed using CO₂. The thoracic aorta and portal vein were quickly removed and placed into cold PSS. Blood was rinsed from the lumen and adherent connective tissue was carefully removed. Rings approximately 4 mm in width were cut from each aorta. The endothelium was mechanically removed by inserting a wire into the lumen and gently rolling the ring on filter paper moistened with PSS. The aortic rings were mounted on stainless steel tissue wires attached to tissue holders. An intact segment of portal vein extending approximately 2 cm from the liver hilus was mounted longitudinally on tissue holders. The tissues were suspended in individual 20 ml organ chambers and connected to a micrometer for control of tissue length and a Grass FT.03 force transducer. Mechanical responses were recorded on Grass Model 7D polygraphs.
The rat portal vein segments were gradually stretched over a 1 to 2 hour equilibration period to a preload of 0.5 g. When the frequency and height of the spontaneous twitches had stabilized, propranolol (1 µM) was added and cumulative concentration response curves were obtained for the test compounds. A steady state reduction of the twitch height and frequency was reached before the next concentration was added.
Force development by the portal vein segments was determined at the peak of the twitch. The effect of each compound on force was calculated relative to the force in its absence. IC₅₀ values were determined at the concentration where 50% of the maximal inhibition force was attained. In addition, the relative frequency of twitches was determined by counting the number of twitches in a 5 minute period following drug addition and determining the change in rate from basal (absence of test compund). Results were then calculated as % inhibition of twitch frequency. Data are report as mean ± SEM.

[2] = system: isolated, buffer perfused rat hearts; assay: Global ischemia (25 min) and reperfusion (30 min) in isolated, buffer perfused rat hearts (Langendorff)
Protocol: For the determination of the effect of the potassium channel activators pinacidil and BRL 34915 (cromakalim) on post-ischemic necrosis and function, isolated, buffer perfused rat hearts were used. Male Sprague-Dawely rats (450-550 g) were used for all experiments. The rats were anesthetized using 30 mg/kg sodium pentobarbital (i.p.) They were intubated and then treated with i.v. heparin (1000 U/kg). While being mechanically ventilated, their hearts were perfused in situ via retrogade cannulation of the aorta. The hearts were then excised and quickly moved to a Langendorff apparatus where they were perfused with Krebs-Henseleit (1.25 mM CaCl₂) buffer at a constant pressure (80 mmHg). A saline-filled latex balloon attached to a metal cannula was then inserted into the left ventricle and connected to a Statham pressure transducer for measurement of left ventricular systolic and developed (LVDP) pressure. The hearts were allowed to equilibrate for 15 minutes at which time end diastolic pressure (EDP) was adjusted to 5 mm Hg and this was maintained for 5 minutes. Pre-ischemia, pre-drug function (HRXLVDP/1000), heart rate, and coronary blood flow (extracorporeal electromagnetic flow probe, Carolina Medical Electronics, King, N.C.) were then determined.
Once the baseline measurements were made, the hearts were divided into 4 groups (n=4-6 each): 1. Hearts receiving vehicle. 2. Hearts receiving 1, 10 or 100 µM pinacidil. 3. Hearts receiving 1 or 7 µM BRL 34915. 4. Hearts receiving 1, 10 or 100 µM nicroandil. Each heart received its respective treatment in the perfusion buffer for 10 minutes at which time functional and flow parameters were again measured. All hearts were then made globally ischemic by shutting off the perfusate for 25 minutes. Reperfusion was then instituted with the normal nondrug treated buffer. Reperfusion was maintained for 30 minutes at which time flow and functional parameters were again measured. Lactate dehydrogenase (LDH) release into the reperfusion effluent was measured and this is a measure of myocardial cell death or necrosis. The severity of ischemia was determined by the return of function during reperfusion, mitigation of contracture (lower end diastolic pressure) and LDH release.

[3] = system: awake dogs with acute myocardial infarction; conditions: cited from earlier work
[4] = system: Ischemic-Reperfused Myocardium; conditions: infusion prior to and during a 15-min coronary occlusion; 3-h reperfusion period; cited from earlier work
[5] = system: aorta; assay: Comparison of potency in aorta (phenylephrine contractions) and portal vein; design: species or system rat; conditions: portal vein compared with aorta
Protocol: as §1
as §2, with “The tissues were suspended in individual 20 ml organ chambers and connected to a micrometer for control of tissue length and a Grass FT.03 force transducer.” left out

[6] = inhibition of spontaneous mechanical activity (twitch height), cumulative concentration response curves, propranolol 1 µM present, N=4 (cromakalim, pinacidil N=5), read-out: IC₅₀

In the case of `CC1(C)Oc2ccc(C#N)cc2[C@@H](N2CCCC2=O)[C@@H]1O` (racemic) [Cromakalim, (±)-6-cyano-3,4-dihydro-2,2-dimethyl-trans-4-(2-oxo-1-pyrrolidyl)-2H-benzo[b]-pyran-3-ol], the IC50 [1, 6] is reported as 0.12 µM, the “LDH release and thus necrosis” value ([2]; 7 µM) is reported as “reduced” and the “myocardial function during reperfusion” value ([2]; 7 µM) is reported as “improved”.
Compound `CC1(C)Oc2ccc(C#N)cc2[C@@H](N)[C@@H]1O` (relative stereo) [SQ 32,844, (trans)-4-amino-3,4-dihydro-3-hydroxy-2,2-dimethyl-2H-1-benzopyran-6-carbonitrile] has an IC50 [1, 6] of 38 µM.
In the case of `CC(NC(=NC#N)Nc1ccncc1)C(C)(C)C` (single isomer, unassigned; (+)) [Pinacidil, (+)-2-cyano-1-(4-pyridyl)-3-(1,2,2-trimethylpropyl)guanidine], the IC50 [1, 6] is given as 0.15 µM, the “blood flow to ischemic myocardium” value [3] is given as “no effect” and the infarct size [3] is given as “no effect”. For the same compound, the post-ischemic cardiac function ([2]; 10 µM, 30 min reperfusion) was “significantly improved”, the “reperfusion end diastolic pressure (EDP) (contracture)” value ([2]; 10 µM, 30 min reperfusion) was “reduced” and the “toxic effects (before ischemia reduction in function)” value ([2]; 100 µM) was “a tendency for toxic effects”. The anti-ischemic activity ([2]; 1 and 100 µM in perfusion buffer for 10 min before ischemia) was “did not show any marked anti-ischemic activity” and the “necrosis as measured by lactate dehydrogenase (LDH) release” value ([2]; at the doses used (1, 10 or 100 µM)) was “did not significantly reduce necrosis”.
For `Nc1nc2c(nc(Br)n2[C@@H]2O[C@@H]3COP(=O)(O)O[C@H]3[C@H]2O)c(=O)[nH]1` [8-Bromo cyclic GMP], the IC50 [1, 6] was 43 µM and the twitch frequency ([1]; frequency of spontaneous contractions with increasing concentration) was “reduced twitch frequency”.
With `O=C(NCCO[N+](=O)[O-])c1cccnc1` [Nicorandil, N-(2-hydroxyethyl)nicotinamide nitrate ester] the IC50 ([1]; values restated in text, read-out: IC₅₀ (50% of the maximum inhibition) in the inhibition of spontaneous mechanical activity in rat portal vein) was 5.1 µM, the IC50 [1, 6] was 5.1 µM and the “effectiveness (anti-ischemic)” value ([2]; any dose used (1, 10 or 100 µM)) was “not showed to be effective”. The “recovery of mycocardial segment function (%SS, dL/dt)” value [4] was “significantly improved recovery” and the “potency in the aorta and portal vein” value [5] was “reduced potency”.
For `O=C(O)c1cccnc1` [nicotinic acid], the “recovery of mycocardial segment function (%SS, dL/dt)” value [4] is listed as “significantly improved recovery”.
